Like-named read-outs stand apart in the source and are kept apart here.
Columns and labels:
thromboxane B2 = test: Plasma thromboxane B2 / urinary thromboxane metabolites after ASA in healthy volunteers; format: in vivo; details: plasma and urine ASA and urinary thromboxane metabolites, 7 days
Description: This effect was accompanied by a considerable therapeutic effectiveness, given that the plasma peak of thromboxane B2, a biomarker of the anti-aggregation effectiveness of ASA, came 1.5 hours earlier than with the crystalline form of the drug (FIG. 4). […] This fact was confirmed by examining both the plasma and urine concentrations of ASA and of the urinary metabolites of thromboxane after 7 days of administration (FIG. 5).

gastric mucosa = test: Gastroerosive activity of oral ASA on the gastric mucosa of Wistar rats (ulcer index, histopathology); format: in vivo; details: ASA 400 mg/Kg oral
Description: In view of this, it was decided to test the effect of the micronization of ASA (400 mg/Kg) and co-grinding thereof with collagen through oral administration on the mucosa of Wistar rats weighing 210 g and compare it with the effects of the administration of ASA (400 mg/Kg) in its non-micronized form.
In particular, a calculation was made of the effect of ASA on the so-called “ulcer score”, according to a method that differentiates the damage due to the acute administration of high doses of ASA given orally into classes of severity which range from the absence of lesions to the maximum score, which is equivalent to ulcers equal to or greater than 6 mm. Furthermore, an analysis was made of the effects of ASA, in the two formulations used, on the histopathological damage of the gastric mucosa after periodic acid Schiff/Alcian blue staining of the histological samples taken from the animals after the two treatments (FIG. 7).

[1] = Pharmacokinetics of ASA given orally or sublingually in healthy volunteers (plasma ASA by LC-MS); format: in vivo; details: human, tablet; for AUC(0-t): read-out: AUC (0-24 h)
Description: The pharmaceutical composition obtained by co-grinding a micronized drug with gelatine was tested in healthy volunteers in order to verify whether the product, in its amorphized form, brought advantages from the standpoint of bioavailability and an enhanced clinical effectiveness associated with an improvement in the safety profile. These tests confirmed that the co-grinding process and simultaneous amorphization of ASA with collagen enables a better absorption of the drug without compromising its effectiveness.
In particular, the administration of the pharmaceutical composition of ASA+collagen after co-grinding in tablet form at doses of 50 and 100 mg given sublingually and orally in groups of 20 healthy volunteers brought about an increase in the plasma concentrations of ASA, determined using the LC-MS method, compared to the administration of equivalent doses of ASA in crystalline form administered sublingually or orally.

[2] = amorphized by co-grinding with β-cyclodextrin or other polymers; cited from earlier work

collagen
effects of collagen on its own (thromboxane B2): no significant effects

CC(=O)Oc1ccccc1C(=O)O [ASA n.m., acetylsalicylic acid]
Ulcer index (gastric mucosa; listed as NM-ASA): 36.12 ± 4.2
Ulcer index (gastric mucosa; listed as non-micronized ASA): 36.12±4.2
histopathological damage of the gastric mucosa (gastric mucosa; periodic acid Schiff/Alcian blue staining): degeneration of cells of the gastric mucosa
Cmax ([1]; ASA 50 mg oral): 269 ± 85.4 ng/mL
AUC(0-t) ([1]; ASA 50 mg oral): 532 ± 123 ng·h/mL
Cmax ([1]; ASA 50 mg sublingual): 314 ± 89.5 ng/mL
AUC(0-t) ([1]; ASA 50 mg sublingual): 675 ± 75.6 ng·h/mL
Cmax ([1]; ASA 100 mg oral): 460 ± 73.2 ng/mL
Cmax ([1]; ASA 100 mg sublingual): 543 ± 68.3 ng/mL

CC(=O)[O][Pt]([NH2])([Cl])([Cl])([NH]C1CCCCC1)[O]C(C)=O [JM216, bis-acetato-ammine-dichloro-cyclohexylamine-platinum (IV)]
water solubility [2]: greater water solubility
